Data: patent US7476668B2, “Thiadiazine derivatives and use thereof as positive AMPA receptor modulators” (Les Laboratoires Servier, priority 2003, dated 2009)

Tested on: AMPA receptors (rat cerebral cortex poly(A+) mRNA expressed in Xenopus oocytes)
Assay: Excitatory currents induced by AMPA in Xenopus oocytes (two-electrode voltage-clamp)
Type: cell-based
Conditions: (S)-AMPA 10 μM; Xenopus oocytes injected with rat cortex mRNA; 20-24° C.
Experimental: Study of the Excitatory Currents Induced by AMPA in Xenopus Oocytes
mRNA's are prepared from cerebral cortex of male Wistar rats by the guanidinium thiocyanate/phenol/chloroform method. The poly (A^+) mRNA's are isolated by chromatography on oligo-dT cellulose and injected at a level of 50 ng per oocyte. The oocytes are incubated for 2 to 3 days at 18° C. to permit expression of the receptors and are then stored at 8-10° C.
Electrophysiological recording is carried out in a Plexiglass® chamber at 20-24° C. in OR2 medium (J. Exp. Zool., 1973, 184, 321-334) by the “voltage-clamp” method using two electrodes, a third electrode being placed in the bath serving as reference.
All the compounds are applied via the incubation medium and the electric current is measured at the end of the application period. (S)-AMPA is used in a concentration of 10 μM. For each compound studied, the concentration that doubles (EC2X) or quintuples (EC5X) the intensity of the current induced by AMPA alone (5 to 50 nA) is determined.
The compounds of the invention potentiate the excitatory effects induced by (S)-AMPA to a very considerable degree.

Compound | EC2X (concentration that doubles the intensity of the current induced by AMPA alone) | EC5X (concentration that quintuples the intensity of the current induced by AMPA alone)
CC(C)N1CNS(=O)(=O)c2sc(Cl)cc21 [Example 4, 6-Chloro-4-isopropyl-3,4-dihydro-2H-thieno[3,2-e][1,2,4]thiadiazine 1,1-dioxide] | 4.2 ± 0.7 µM | 11 ± 3 µM
CN1CNS(=O)(=O)c2c(Cl)sc(Cl)c21 [Example 6, 5,7-Dichloro-4-methyl-3,4-dihydro-2H-thieno[3,4-e][1,2,4]thiadiazine 1,1-dioxide] | 5.4 ± 2.8 µM | 11.3 ± 4.9 µM
